Experimental data from US20140187784A1, “RADIOACTIVE QUINOLINONE DERIVATIVE AND PHARMACEUTICAL DRUG COMPRISING THE SAME” (Nihon Medi-Physics Co., Ltd., priority 2012, published 2014).

How the values were obtained:
[1] = Stability evaluation in plasma (HPLC, RI detector); assay type: in vitro ADME; details: CD-1 mouse plasma, 37° C., incubation for 120 minutes
Protocol: The stability of [^125I]PAY21 in plasma was evaluated by the following procedures: Blood was collected from the heart of each CD-1 mouse. Plasma was separated by centrifugation and passed through Cosmonice filter (diameter: 4 mm, pore size: 0.45 μm, Nacalai Tesque, Inc.). 350 μL of the plasma thus filtered was incubated at 37° C. for 15 minutes. Then, 30 μL of a saline solution of [^125I]PAY21 (18.5 kBq (0.5 μCi)) was added thereto. After incubation for 120 minutes, a 100 μL aliquot of the mixture was separated and added to methanol (500 μL) under ice cooling. The mixture was further centrifuged, and the supernatant (400 μL) was analyzed by HPLC. The HPLC conditions were the same as those shown in Example 6.

[2] = Pharmacokinetic and distribution experiment using CD-1 (ICR) mice instead of ddy mice; assay type: in vivo; details: similar operation using CD-1 (ICR) mice instead of ddy mice
[3] = Pharmacokinetic and distribution experiment (radioactivity in blood and excised organs after tail vein injection); assay type: in vivo; details: ddy mice; for Adrenal gland/Blood ratio / Adrenal gland/Kidney ratio / Adrenal gland/Liver ratio / Radioactivity Distribution, Adrenal gland / Radioactivity Distribution, Blood / Radioactivity Distribution, Heart / Radioactivity Distribution, Kidney / Radioactivity Distribution, Large intestine / Radioactivity Distribution, Liver / Radioactivity Distribution, Lung / Radioactivity Distribution, Pancreas / Radioactivity Distribution, Small intestine / Radioactivity Distribution, Spleen / Radioactivity Distribution, Stomach / Radioactivity Distribution, Thyroid: tail vein injection, 18.5 kBq (0.5 μCi)
Protocol: (§1) The HPLC fraction of [^125I]PAY15 obtained in Example 3 was concentrated and then diluted with saline. The resulting solution was used in administration. 100 μL of the solution (18.5 kBq (0.5 μCi)) was injected to the tail vein of each of five ddy mice (6 weeks old). Five minutes later, each mouse was decapitated, and blood was collected. Then, organs (adrenal gland, pancreas, heart, lung, stomach, small intestine, large intestine, liver, spleen, kidney, and thyroid gland) were excised. After measurement of their weights, the radioactivities of blood and each excised organ were measured. Also, the point in time when each mouse was decapitated was changed to 5, 15, 30, 60, and 120 minutes later to perform similar operation.
The HPLC fraction of [^125I]PAY21 obtained in Example 6 was concentrated and then diluted with saline. The resulting solution was used in administration to perform the same operation as in Evaluation 1.
as §1, with “[^18F]PAY27 obtained” for “The HPLC fraction of [^125I]PAY15 obtained”, “Example 10” for “Example 3”, “was” for “was concentrated and then”, “solution (14.8” for “solution (18.5”, “kBq (4” for “kBq (0.5”, “and thigh bone)” for “and thyroid gland)”
as §1, with “[^18F]PAY54 obtained” for “The HPLC fraction of [^125I]PAY15 obtained”, “Example 13” for “Example 3”, “was” for “was concentrated and then”, “solution (14.8” for “solution (18.5”, “kBq (4” for “kBq (0.5”, “and thigh bone)” for “and thyroid gland)”

O=C1CCc2cc(-c3cncc([125I])c3)cc3c2N1CC3 [[^125I]PAY21, 8-(5-[^125I]iodopyridin-3-yl)-1,2,5,6-tetrahydro-4H-pyrrolo[3,2,1-ij]quinolin-4-one]
peak area of intact compound after incubation in plasma [1]: approximately 60%
radioactivity distribution in CD-1 (ICR) mice compared with ddy mice [2]: no difference between the species
radioactivity accumulation in the adrenal gland compared with blood and periadrenal tissues ([3]; at an early stage after administration): high radioactivity accumulation
Adrenal gland/Blood ratio ([3]; 5 min): 1.71 ± 0.08
Adrenal gland/Kidney ratio ([3]; 5 min): 1.52 ± 0.19
Adrenal gland/Liver ratio ([3]; 5 min): 1.13 ± 0.14
Radioactivity Distribution, Adrenal gland ([3]; 5 min): 9.7 ± 1.4 % dose/g
Radioactivity Distribution, Blood ([3]; 5 min): 5.7 ± 0.8 % dose/g
Radioactivity Distribution, Heart ([3]; 5 min): 3.6 ± 0.4 % dose/g
Radioactivity Distribution, Kidney ([3]; 5 min): 6.4 ± 0.4 % dose/g
Radioactivity Distribution, Large intestine ([3]; 5 min): 2.3 ± 0.4 % dose/g
Radioactivity Distribution, Liver ([3]; 5 min): 8.6 ± 1.1 % dose/g
Radioactivity Distribution, Lung ([3]; 5 min): 5.6 ± 0.7 % dose/g
Radioactivity Distribution, Pancreas ([3]; 5 min): 4.0 ± 0.5 % dose/g
Radioactivity Distribution, Small intestine ([3]; 5 min): 6.0 ± 1.0 % dose/g
Radioactivity Distribution, Spleen ([3]; 5 min): 3.9 ± 0.4 % dose/g
Radioactivity Distribution, Stomach ([3]; 5 min): 10.1 ± 1.6 % dose/g
Radioactivity Distribution, Thyroid ([3]; 5 min): 114.1 ± 22.4 % dose/g
Adrenal gland/Blood ratio ([3]; 15 min): 0.75 ± 0.17
Adrenal gland/Kidney ratio ([3]; 15 min): 0.90 ± 0.24
Adrenal gland/Liver ratio ([3]; 15 min): 1.12 ± 0.36
Radioactivity Distribution, Adrenal gland ([3]; 15 min): 3.6 ± 1.0 % dose/g
Radioactivity Distribution, Blood ([3]; 15 min): 4.7 ± 0.4 % dose/g
Radioactivity Distribution, Heart ([3]; 15 min): 2.1 ± 0.3 % dose/g
Radioactivity Distribution, Kidney ([3]; 15 min): 4.0 ± 0.6 % dose/g
Radioactivity Distribution, Large intestine ([3]; 15 min): 2.2 ± 0.1 % dose/g
Radioactivity Distribution, Liver ([3]; 15 min): 3.2 ± 0.4 % dose/g
Radioactivity Distribution, Lung ([3]; 15 min): 4.1 ± 0.3 % dose/g
Radioactivity Distribution, Pancreas ([3]; 15 min): 2.6 ± 0.3 % dose/g
Radioactivity Distribution, Small intestine ([3]; 15 min): 8.1 ± 2.2 % dose/g
Radioactivity Distribution, Spleen ([3]; 15 min): 3.0 ± 0.4 % dose/g
Radioactivity Distribution, Stomach ([3]; 15 min): 28.4 ± 3.3 % dose/g
Radioactivity Distribution, Thyroid ([3]; 15 min): 332.2 ± 43.1 % dose/g
Adrenal gland/Blood ratio ([3]; 30 min): 0.76 ± 0.14
Adrenal gland/Kidney ratio ([3]; 30 min): 0.82 ± 0.10
Adrenal gland/Liver ratio ([3]; 30 min): 1.26 ± 0.20
Radioactivity Distribution, Adrenal gland ([3]; 30 min): 2.8 ± 0.3 % dose/g
Radioactivity Distribution, Blood ([3]; 30 min): 3.7 ± 0.4 % dose/g
Radioactivity Distribution, Heart ([3]; 30 min): 1.5 ± 0.1 % dose/g
Radioactivity Distribution, Kidney ([3]; 30 min): 3.4 ± 0.4 % dose/g
Radioactivity Distribution, Large intestine ([3]; 30 min): 2.1 ± 0.2 % dose/g
Radioactivity Distribution, Liver ([3]; 30 min): 2.2 ± 0.2 % dose/g
Radioactivity Distribution, Lung ([3]; 30 min): 3.4 ± 0.3 % dose/g
Radioactivity Distribution, Pancreas ([3]; 30 min): 2.4 ± 0.5 % dose/g
Radioactivity Distribution, Small intestine ([3]; 30 min): 10.3 ± 2.8 % dose/g
Radioactivity Distribution, Spleen ([3]; 30 min): 2.5 ± 0.6 % dose/g
Radioactivity Distribution, Stomach ([3]; 30 min): 40.7 ± 3.5 % dose/g
Radioactivity Distribution, Thyroid ([3]; 30 min): 1570.0 ± 165.0 % dose/g
Adrenal gland/Blood ratio ([3]; 60 min): 0.54 ± 0.17
Adrenal gland/Kidney ratio ([3]; 60 min): 0.65 ± 0.21
Adrenal gland/Liver ratio ([3]; 60 min): 1.15 ± 0.38
Radioactivity Distribution, Adrenal gland ([3]; 60 min): 1.9 ± 0.8 % dose/g
Radioactivity Distribution, Blood ([3]; 60 min): 3.4 ± 0.6 % dose/g
Radioactivity Distribution, Heart ([3]; 60 min): 1.3 ± 0.2 % dose/g
Radioactivity Distribution, Kidney ([3]; 60 min): 2.9 ± 0.6 % dose/g
Radioactivity Distribution, Large intestine ([3]; 60 min): 2.0 ± 0.4 % dose/g
Radioactivity Distribution, Liver ([3]; 60 min): 1.6 ± 0.3 % dose/g
Radioactivity Distribution, Lung ([3]; 60 min): 3.1 ± 0.6 % dose/g
Radioactivity Distribution, Pancreas ([3]; 60 min): 1.7 ± 0.3 % dose/g
Radioactivity Distribution, Small intestine ([3]; 60 min): 10.9 ± 2.9 % dose/g
Radioactivity Distribution, Spleen ([3]; 60 min): 1.9 ± 0.4 % dose/g
Radioactivity Distribution, Stomach ([3]; 60 min): 39.4 ± 9.1 % dose/g
Radioactivity Distribution, Thyroid ([3]; 60 min): 1318.7 ± 800.8 % dose/g
Adrenal gland/Blood ratio ([3]; 120 min): 0.71 ± 0.32
Adrenal gland/Kidney ratio ([3]; 120 min): 0.81 ± 0.44
Adrenal gland/Liver ratio ([3]; 120 min): 1.33 ± 0.64
Radioactivity Distribution, Adrenal gland ([3]; 120 min): 1.8 ± 0.7 % dose/g
Radioactivity Distribution, Blood ([3]; 120 min): 2.6 ± 0.3 % dose/g
Radioactivity Distribution, Heart ([3]; 120 min): 1.0 ± 0.2 % dose/g
Radioactivity Distribution, Kidney ([3]; 120 min): 2.4 ± 0.6 % dose/g
Radioactivity Distribution, Large intestine ([3]; 120 min): 10.0 ± 4.8 % dose/g
Radioactivity Distribution, Liver ([3]; 120 min): 1.4 ± 0.2 % dose/g
Radioactivity Distribution, Lung ([3]; 120 min): 2.6 ± 0.7 % dose/g
Radioactivity Distribution, Pancreas ([3]; 120 min): 1.6 ± 0.1 % dose/g
Radioactivity Distribution, Small intestine ([3]; 120 min): 4.8 ± 1.3 % dose/g
Radioactivity Distribution, Spleen ([3]; 120 min): 1.7 ± 0.1 % dose/g
Radioactivity Distribution, Stomach ([3]; 120 min): 38.6 ± 6.5 % dose/g
Radioactivity Distribution, Thyroid ([3]; 120 min): 4664.0 ± 1419.1 % dose/g
